According to article PMC4281523 (Pharmaceutical research, 2013):

Assays:
[1] = cited from earlier work
[2] = format: physicochemical
[3] = Drug release from SEDDS during in vitro digestion, EPR; format: physicochemical
[4] = format: physicochemical; settings: soybean oil in fed state medium, absence of lipolysis

SMILES | logP [1] | percentage of released drug from SEDDS ([2]; 90 minutes, absence of digestion) | drug released from SEDDS ([2]; over 18 hours, absence of digestive enzyme) | time of leveling off of drug release [3] | TB uptake constant into oil, Prel [4] | octanol/water partition coefficient (log P) [1]
CC(C)(Sc1cc(C(C)(C)C)c(O)c(C(C)(C)C)c1)Sc1cc(C(C)(C)C)c(O)c(C(C)(C)C)c1 [Probucol] | 8.92 |  |  |  |  | 
CC1(C)CC(OC(=O)c2ccccc2)CC(C)(C)N1[O] [TB, TEMPOL benzoate] |  | 9% | 14% | 50 min | 3.52e-08 cm/s | 2.46
